From US8372617B2, “β-galactoside-α2,6-sialyltransferase, a gene encoding thereof, and a method for enhancing enzyme activity” (Japan Tobacco Inc., priority 2007, dated 2013)

Tests used:
[1] = test system: recombinant β-galactoside-α2,6-sialyltransferase N1C0; experiment: Glycosyl acceptor substrate specificity, monosaccharides and disaccharides; assay type: biochemical, Photobacterium leiognathi; conditions: for % (nmol), relative activity toward acceptor substrate: sialyltransferase activity toward lactose set to 100; for transfer of sialic acid to acceptor substrate: 11 monosaccharides and disaccharides tested
Source text: The purified enzyme prepared in Example 3 for JT-SHIZ-145-derived recombinant β-galactoside-α2,6-sialyltransferase N1C0 (SEQ ID NO: 4) was used to cause sialic acid transfer reaction in various monosaccharides/disaccharides as glycosyl acceptor substrates. The reaction was accomplished as described in J. Biochem., 120, 104-110 (1996). The monosaccharides used as glycosyl acceptor substrates were the following 8 types: methyl-α-D-galactopyranoside (Gal-α-OMe), methyl-β-D-galactopyranoside (Gal-β-OMe), methyl-α-D-glucopyranoside (Glc-α-OMe), methyl-β-D-glucopyranoside (Glc-β-OMe), methyl-α-D-mannopyranoside (Man-α-OMe), methyl-β-D-mannopyranoside (Man-β-OMe), N-acetylgalactosamine (GalNAc), and N-acetylglucosamine (GlcNAc). The disaccharides used were the following 3 types: lactose (Gal-β1,4-Glc), N-acetyllactosamine (Gal-β1,4-GlcNAc) and Gal-β1,3-GalNAc.
It should be noted that the relative activity toward each acceptor substrate was calculated assuming that the sialyltransferase activity toward lactose was set to 100.

[2] = test system: recombinant β-galactoside-α2,6-sialyltransferase N1C0; experiment: Effect of addition of various salts (complex ions, Na+/K+) on enzyme activity; assay type: biochemical, Photobacterium leiognathi; conditions: anion concentration 0.1 M in Tris-HCl, 30° C.; compared to absence of addition
Procedure: Aqueous solutions were prepared for potassium nitrate (KNO3), sodium nitrate (NaNO3), potassium sulfate (K2SO4), sodium sulfate (Na2SO4), sodium dihydrogen phosphate (NaH2PO4), disodium hydrogen phosphate (Na2HPO4) and potassium phosphate (KH2PO4+K2HPO4 (abbreviated as KPB)). These aqueous solutions were each adjusted with Tris-HCl buffer to give an anion concentration of 0.1 M in the reaction solution at 30° C., and used for enzyme activity measurement.
It should be noted that enzyme activity in the reaction solution upon addition of each solution was evaluated as relative activity, assuming that the enzyme activity in the absence of addition (i.e., in Tris-HCl alone) was set to 1.

[3] = test system: recombinant β-galactoside-α2,6-sialyltransferase N1C0
Procedure: Using a crude enzyme solution, enzyme activity was measured in a reaction solution adjusted to contain calcium chloride and/or EDTA at a final concentration of 10 mM for calcium ion and 50 mM for EDTA.

[4] = test system: recombinant β-galactoside-α2,6-sialyltransferase N1C0; experiment: Optimum temperature for enzyme activity; assay type: biochemical, Photobacterium leiognathi; conditions: phosphate buffer (pH 8.0), 10° C. up to 50° C.
Procedure: The enzyme activity was measured at an interval of 5° C. starting from 10° C. up to 50° C. using phosphate buffer (pH 8.0).
As a result, as shown in FIG. 2-2, the enzyme activity was maximum at 30° C. It should be noted that enzyme activity at each temperature was evaluated as relative activity, assuming that the enzyme activity at 30° C. was set to 100.

[5] = test system: recombinant β-galactoside-α2,6-sialyltransferase N1C0; experiment: Optimum pH for enzyme activity; assay type: biochemical, Photobacterium leiognathi; conditions: phosphate buffer, 30° C.
Procedure: Acetate buffer (pH 4-5), cacodylate buffer (pH 5-6), Bis-Tris buffer (pH 6-7), phosphate buffer (pH 6-9.5), Tris-HCl buffer (pH 7-9.5), TAPS buffer (pH 8-9), CHES buffer (pH 9-10) and CAPS buffer (pH 10-11) were prepared and used for enzyme activity measurement at 30° C. at various pH values.
It should be noted that enzyme activity at each pH was evaluated as relative activity, assuming that the enzyme activity at pH 8.0 in phosphate buffer was set to 1.

[6] = test system: β-galactoside-α2,6-sialyltransferase; experiment: Binding mode of sialic acid: reaction with PA-lactose and CMP-NeuAc, HPLC analysis; assay type: biochemical, Photobacterium leiognathi; conditions: pyridylaminated lactose as glycosyl acceptor
Procedure: To determine the binding mode of sialic acid, a reaction using PA-lactose as a substrate was then performed. The enzymatic reaction was accomplished by using the resulting crude enzyme solution and a pyridylaminated sugar chain as a glycosyl acceptor substrate. The pyridylaminated sugar chain used for analysis was pyridylaminated lactose (Galβ1-4Glc-PA, Takara Bio Inc., Japan). To 5 μl of the crude enzyme solution, 1.5 μl of 5 mM CMP-NeuAc and 1.5 μl of 10 pmol/μl glycosyl acceptor substrate were added and reacted at 25° C. for 18 hours. After completion of the reaction, the reaction solution was treated at 100° C. for 2 minutes to inactivate the enzyme, followed by HPLC to analyze the reaction product. The HPLC system used was Shimadzu LC10A (Shimadzu Corporation, Japan) and the analytical column used was Takara PALPAK Type R (Takara Bio Inc., Japan). […] The analysis was performed under the following conditions: flow rate: 1 ml/min, column temperature: 40° C., detection: fluorescence (Ex: 320 nm, Em: 400 nm).
Further analysis was performed to examine whether sialyltransferase expressed by E. coli cells transformed in (5) above with SHIZ145-N1C0/pTrc99A had β-galactoside-α2,6-sialyltransferase activity. […] As a result, PA-6′-sialyllactose (Neu5Acα2-6Galβ1-4Glc-PA) was detected, as in the case of Example 1.

[7] = test system: β-galactoside-α2,6-sialyltransferase from the strain JT-SHIZ-145; experiment: Sialyltransferase activity measurement of crude enzyme solution from E. coli transformed with SHIZ145-N1C0/pTrc99A (14C CMP-NeuAc donor, lactose acceptor); assay type: biochemical, Photobacterium leiognathi; conditions: insert +, 120 mM lactose, 0.5 M NaCl, 30° C. for 30 minutes
Procedure: Among the two expression vectors obtained above, SHIZ145-N1C0/pTrc99A was used to perform an induction experiment of protein expression. A single colony of E. coli TB1 having the expression vector pTrc99A carrying the SHIZ145-N1C0 clone (SEQ ID NO: 3) was inoculated into LB medium (6 ml) containing an antibiotic, ampicillin (final concentration […]), and pre-cultured at 30° C. to about A600=0.5, followed by addition of IPTG (isopropyl-β-D(−)-thiogalactopyranoside, Wako Pure Chemical Industries, Ltd., Japan) at a final concentration of 1 mM to initiate expression induction. After culturing overnight with shaking at 30° C., the cells in 2 ml culture solution were collected by centrifugation. These cells were suspended in 400 μl of 20 mM Bis-Tris buffer (pH 6.0) containing 0.336% Triton X-100, and ultrasonically homogenized under ice cooling. The resulting homogenate was defined as a crude enzyme solution and provided for sialyltransferase activity measurement. Measurement was accomplished as described in J. Biochem., 120, 104-110 (1996) (hereby incorporated by reference in its entirety). […] Radioactivity was measured for the reaction product, i.e., sialyllactose contained in the eluate from the column to calculate the enzyme activity.

Molecule | % (nmol), relative activity toward acceptor substrate [1] [%] | transfer of sialic acid to acceptor substrate [1] | further results
CC(=O)N[C@H]1C(O)O[C@H](CO)[C@@H](O)[C@@H]1O (stereo partly drawn) [GlcNAc, N-acetylglucosamine] | 6 |  | 
CO[C@@H]1O[C@H](CO)[C@@H](O)[C@H](O)[C@H]1O [Glc-β-OMe, methyl-β-D-glucopyranoside] | 0 |  | 
CO[C@H]1O[C@H](CO)[C@@H](O)[C@H](O)[C@@H]1O [Man-α-OMe, methyl-α-D-mannopyranoside] | 0 |  | 
CO[C@H]1O[C@H](CO)[C@@H](O)[C@H](O)[C@H]1O [Glc-α-OMe, methyl-α-D-glucopyranoside] | 0 |  | 
CO[C@@H]1O[C@H](CO)[C@H](O)[C@H](O)[C@H]1O [Gal-β-OMe, methyl-β-D-galactopyranoside] | 59 | efficiently transferred | 
CC(=O)N[C@H]1C(O)O[C@H](CO)[C@H](O)[C@@H]1O[C@@H]1O[C@H](CO)[C@H](O)[C@H](O)[C@H]1O (stereo partly drawn) [Gal-β1,3-GalNAc] | 71 | efficiently transferred | 
CO[C@@H]1O[C@H](CO)[C@@H](O)[C@H](O)[C@@H]1O [Man-β-OMe, methyl-β-D-mannopyranoside] | 0 |  | 
OC[C@H]1O[C@@H](O[C@H]2[C@H](O)[C@@H](O)C(O)O[C@@H]2CO)[C@H](O)[C@@H](O)[C@H]1O (stereo partly drawn) [Gal-β1,4-Glc, lactose] | 100 | efficiently transferred | 
potassium phosphate (KH2PO4+K2HPO4 (abbreviated as KPB)) [potassium phosphate (KPB)] |  |  | effect of addition on enzyme activity [2]: maximum
CO[C@H]1O[C@H](CO)[C@H](O)[C@H](O)[C@H]1O [Gal-α-OMe, methyl-α-D-galactopyranoside] | 2 |  | 
CC(=O)N[C@H]1C(O)O[C@H](CO)[C@H](O)[C@@H]1O (stereo partly drawn) [GalNAc, N-acetylgalactosamine] | 35 | efficiently transferred | 
CC(=O)N[C@H]1C(O)O[C@H](CO)[C@@H](O[C@@H]2O[C@H](CO)[C@H](O)[C@H](O)[C@H]2O)[C@@H]1O (stereo partly drawn) [Gal-β1,4-GlcNAc, N-acetyllactosamine] | 205 | efficiently transferred | 
[Ca+2].[Cl-].[Cl-] [calcium ion, calcium chloride] |  |  | enzyme activity with calcium ion together with EDTA ([3]; 10 mM calcium ion and 50 mM EDTA): almost the same level as in the absence of calcium ion; enzyme activity in the presence of calcium ion ([3]; 10 mM calcium ion, compared to absence of calcium ion): remarkably increased
O=P([O-])([O-])O.[Na+].[Na+] [disodium hydrogen phosphate] |  |  | effect of addition on enzyme activity [2]: maximum
SHIZ145-N1C0: β-galactoside-α2,6-sialyltransferase from strain JT-SHIZ-145 lacking the amino acids of the signal peptide region, expressed in E. coli (protein) MCNDNQNTVDVVVSTVNDNVIENNTYQVKPIDTPTTFDSYSWIQTCGTPILKDDEKYSLSFDFVAPELDQDEKFCFEFTGDVDGKRYVTQTNLTVVAPTLEVYVDHASLPSLQQLMKIIQQKNEYSQNERFISWGRIRLTEDNAEKLNAHIYPLAGNNTSQELVDAVIDYADSKNRLNLELNTNTGHSFRNIAPILRATSSKNNILISNINLYDDGSAEYVSLYNWKDTDNKSQKLSDSFLVLKDYLNGISSEKPNGIYSIYNWHQLYHSSYYFLRKDYLTVETKLHDLREYLGGSLKQMSWDTFSQLSKGDKELFLNIVGFDQEKLQQEYQQSELPNFVFTGTTTWAGGETKEYYAQQQVNVVNNAINETSPYYLGREHDLFFKGHPRGGIINDIILGSFNNMIDIPAKVSFEVLMMTGMLPDTVGGIASSLYFSIPAEKVSFIVFTSSDTITDREDALKSPLVQVMMTLGIVKEKDVLFWC |  |  | temperature at which the enzyme activity was maximum [4]: 30 °C; pH at which the enzyme activity reached maximum [5]: 8.0; PA-6′-sialyllactose (Neu5Acα2-6Galβ1-4Glc-PA) product [6]: detected; NeuAc transferred (cpm) [7]: 8326 cpm
